Results reported in PMC6271756, “Synthesis of Caffeic Acid Amides Bearing 2,3,4,5-Tetra-hydrobenzo[b][1,4]dioxocine Moieties and Their Biological Evaluation as Antitumor Agents” (Molecules, 2014).

Legend:
Hela = assay: Cell proliferation assay (CCK8), Hela; type: cell-based; details: Homo sapiens, cells incubated with compounds for 24 h
Experimental: (§1) CCK8 is much more convenient and helpful than MTT for analyzing cell proliferation, because it can be reduced to soluble formazan by dehydrogenase in mitochondria and has little toxicity to cells. Cell proliferation was determined using CCK8 dye (Beyotime Inst. Biotech., Nanjing, China) according to the manufacturer's instructions. Briefly, 1–5 × 10^3 cells per well were seeded on a 96-well plate, and grown at 37 °C for 12 h. Subsequently, cells were treated with all synthesized compounds at increasing concentrations in the presence of 10% FBS for 24 h. After addition of 10 μL CCK8 dyeto each well, cells were incubated at 37 °C for 2 h and plates were read on a Victor-V multilabel counter (Perkin-Elmer, Männedorf, Switzerland) using the default […]. Percent inhibition or IC50 values of compounds were calculated by comparison with DMSO-treated control wells.

HepG2 = assay: Cell proliferation assay (CCK8), HepG2; type: cell-based; details: for IC50: Homo sapiens, HepG2, cells incubated with compounds for 24 h, CCK8
Experimental: as §1

A431 = assay: Cell proliferation assay (CCK8), A431; type: cell-based; details: Homo sapiens, A-431, cells incubated with compounds for 24 h
Experimental: as §1

EGFR = target: T1, EGFR (Homo sapiens, UniProt P00533); assay: EGFR kinase autophosphorylation assay (DELFIA/Time Resolved Fluorometry); type: biochemical; details: enzyme incubated with compounds for 70 min
T1 construct: EGFR cytoplasmic domain (EGFR-CD, amino acids 645–1186); (His)6 (N); made in house; host or cells: Sf-9 insect cells (baculovirus)
Experimental: A sequence that encodes (His)6 was located at the 5' upstream to the EGFR sequences. Sf-9 cells were infected for 3 days for protein expression. Sf-9 cell pellets were solubilized at 0 °C in a buffer at pH 7.4 containing 50 mM HEPES, 10 mM NaCl, 1% Triton, 10 μM ammonium molybdate, 100 μM sodium vanadate, 10 μg/mL aprotinin, 10 μg/mL leupeptin, 10 μg/mL pepstatin, and 16 μg/mL benzamidine HCl for 20 min followed by 20 min centrifugation. Crude extract supernatant was passed through an equilibrated Ni-NTA superflow packed column and washed with 10 mM and then 100 mM imidazole to remove nonspecifically bound material. Histidine tagged proteins were eluted with 250 and 500 mM imidazole and dialyzed against 50 mM NaCl, 20 mM HEPES, 10% glycerol, and 1 μg/mL each of aprotinin, leupeptin, and pepstatin for 2 h. The entire purification procedure was performed at 4 °C or on ice.
EGFR kinase assays was set up to assess the level of autophosphorylation based on DELFIA/Time Resolved Fluorometry. […] In each well, 10 μL compound was incubated with 10 μL (5 ng for EGFR) recombinant enzyme (1:80 dilution in 100 mM HEPES) for 10 min at room temperature. Then, 10 μL of 5× buffer (containing 20 mM HEPES, 2 mM MnCl2, 100 μM Na3VO4, and 1 mM DTT) and 20 μL of 0.1 mM ATP-50 mM MgCl2 were added for 1 h. Positive and negative controls were included in each plate by incubation of enzyme with or without ATP-MgCl2.
At the end of incubation, liquid was aspirated, and plates were washed three times with wash buffer. A 75 μL (400 ng) sample of europium labeled anti-phosphotyrosine antibody was added to each well for another 1 h of incubation. After washing, enhancement solution was added and the signal was detected by Victor (Wallac Inc., Männedorf, Switzerland) with excitation at 340 nm and emission at 615 nm. The percentage of autophosphorylation inhibition by the compounds was calculated using the following equation: 100% − [[…]] (1)
The IC50 was obtained from curves of percentage inhibition with eight concentrations of compound.

HepG2 cell = assay: Apoptosis assay by flow cytometry (AnnexinV-FITC/PI); type: cell-based
Experimental: Approximately 10^5 cells/well were plated in a 24 well plate and allowed to adhere. After 24 h, the medium was replaced with fresh culture medium containing compounds D9 at final concentrations of 4, 6, 8 μM. Nontreated wells received an equivalent volume of ethanol (<0.1%). They were trypsinized, washed in PBS and centrifuged at 2,000 rpm for 5 min. The pellet was then resuspended in 500 μL of staining solution (containing 5 μL AnnexinV-FITC and 5 μL PI in Binding Buffer), mixed gently and incubated for 15 min at room temperature (15–25 °C) in dark. The sample were then read in FACScalibur flow cytometer (BD Company, New Jersey, USA) at 488 nm excitation.

HepG2 cell migration = assay: Cell migration assay (Trans well); type: cell-based; details: 0.06, 0.08, 0.1 μM, 24 h
Experimental: A cell migration assay was conducted as described previously (Qian et al.), with a slight modification. In brief, the cells were serum-starved overnight, and the transwells were coated with […] (ECL) cell attachment matrix (Upstate Biotechnology, Lake Placid, NY, USA) at 20 μg/mL. The top chambers of transwells were loaded with 0.2 mL of cells (4 × 10^5 cells/mL) in serum-free media, and the bottom chambers were loaded with 0.6 mL of MEM media containing 0.5% FBS. The cells were incubated in the transwells at 37 °C in 5% CO2 for 24 h. A microplate reader was used to measure the optical density of the eluted solutions in order to determine their migration values. Mean values were obtained from three individual experiments.

T1 sequence (P00533 669-1210): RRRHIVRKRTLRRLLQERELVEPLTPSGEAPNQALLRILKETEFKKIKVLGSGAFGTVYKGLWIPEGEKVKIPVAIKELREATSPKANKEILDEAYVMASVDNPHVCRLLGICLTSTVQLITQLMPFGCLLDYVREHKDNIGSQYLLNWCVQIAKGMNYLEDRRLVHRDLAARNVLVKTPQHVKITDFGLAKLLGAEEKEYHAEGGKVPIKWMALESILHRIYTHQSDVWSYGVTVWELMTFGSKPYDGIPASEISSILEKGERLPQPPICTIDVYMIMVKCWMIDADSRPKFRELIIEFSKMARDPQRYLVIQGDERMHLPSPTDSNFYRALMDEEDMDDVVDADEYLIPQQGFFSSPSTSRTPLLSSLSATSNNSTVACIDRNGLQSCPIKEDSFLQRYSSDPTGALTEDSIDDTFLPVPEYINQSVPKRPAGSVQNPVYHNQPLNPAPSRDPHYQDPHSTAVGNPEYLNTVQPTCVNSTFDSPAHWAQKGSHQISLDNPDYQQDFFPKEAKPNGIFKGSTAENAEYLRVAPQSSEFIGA

Molecule `O=C(O)/C=C/c1ccc2c(c1)OCCCCO2` [C, (E)-3-(2,3,4,5-tetrahydrobenzo[b][1,4]dioxocin-8-yl)acrylic acid] has an IC50 (Hela) of 105 µM, an IC50 (HepG2) of 56 µM and an IC50 (A431) of 41 µM.
For `O=C(O)/C=C/c1ccc(O)c(O)c1` [Caffeic acid], the IC50 (Hela) was 544 µM, the IC50 (HepG2) was 225 µM and the IC50 (A431) was 93.5 µM.
`O=C(/C=C/c1ccc2c(c1)OCCCCO2)Nc1ccc([N+](=O)[O-])cc1` [Compound D1, (E)-N-(4-nitrophenyl)-3-(2,3,4,5-tetrahydrobenzo[b][1,4]dioxocin-8-yl)acrylamide] gave an IC50 (Hela) of 13.6 µM, an IC50 (HepG2) of 3.47 µM and an IC50 (A431) of 16.6 µM. The IC50 (EGFR) was 7.25 µM and the melting point was 125 to 126 °C.
Molecule `O=C(/C=C/c1ccc2c(c1)OCCCCO2)Nc1ccccc1[N+](=O)[O-]` [Compound D2, (E)-N-(2-nitrophenyl)-3-(2,3,4,5-tetrahydrobenzo[b][1,4]dioxocin-8-yl)acrylamide] has an IC50 (Hela) of 28.2 µM, an IC50 (HepG2) of 9.4 µM and an IC50 (A431) of 24.7 µM. For the same molecule, the melting point was 119 to 120 °C.
`COc1ccc(NC(=O)/C=C/c2ccc3c(c2)OCCCCO3)cc1OC` [Compound D3, (E)-N-(3,4-dimethoxyphenyl)-3-(2,3,4,5-tetrahydrobenzo[b][1,4]dioxocin-8-yl)acrylamide] showed an IC50 (Hela) of 19.6 µM, an IC50 (HepG2) of 10.2 µM and an IC50 (A431) of 8.96 µM. It also gave a melting point of 171 to 172 °C.
`COc1cc(NC(=O)/C=C/c2ccc3c(c2)OCCCCO3)cc(OC)c1` [Compound D4, (E)-N-(3,5-dimethoxyphenyl)-3-(2,3,4,5–tetrahydrobenzo[b][1,4]dioxocin-8-yl)acrylamide] gave an IC50 (Hela) of 23.7 µM, an IC50 (HepG2) of 11.1 µM and an IC50 (A431) of 10 µM. It also gave a melting point of 115 to 116 °C.
`COc1ccc(OC)c(NC(=O)/C=C/c2ccc3c(c2)OCCCCO3)c1` [Compound D5, (E)-N-(2,5-dimethoxyphenyl)-3-(2,3,4,5-tetrahydrobenzo[b][1,4]dioxocin-8-yl)acrylamide] gave an IC50 (Hela) of 21.4 µM, an IC50 (HepG2) of 10.5 µM and an IC50 (A431) of 9.31 µM. For the same molecule, the melting point was 110 to 111 °C.
`COc1cc(NC(=O)/C=C/c2ccc3c(c2)OCCCCO3)cc(OC)c1OC` [Compound D6, (E)-3-(2,3,4,5-tetrahydrobenzo[b][1,4]dioxocin-8-yl)-N-(3,4,5-trimethoxyphenyl)acrylamide] showed an IC50 (Hela) of 25.7 µM, an IC50 (HepG2) of 13.2 µM and an IC50 (A431) of 11.7 µM. It also gave a melting point of 145 to 146 °C.
In the case of `COc1cccc(NC(=O)/C=C/c2ccc3c(c2)OCCCCO3)c1` [Compound D7, (E)-N-(3-methoxyphenyl)-3-(2,3,4,5-tetrahydrobenzo[b][1,4]dioxocin-8-yl)acrylamide], the IC50 (Hela) is reported as 8.71 µM, the IC50 (HepG2) is reported as 3.16 µM and the IC50 (A431) is reported as 12.6 µM. It also gave an IC50 (EGFR) of 6.78 µM and a melting point of 104 to 105 °C.
With `COc1ccc(NC(=O)/C=C/c2ccc3c(c2)OCCCCO3)cc1` [Compound D8, (E)-N-(4-methoxyphenyl)-3-(2,3,4,5-tetrahydrobenzo[b][1,4]dioxocin-8-yl)acrylamide] the IC50 (Hela) was 7.04 µM, the IC50 (HepG2) was 0.95 µM and the IC50 (A431) was 7.42 µM. It also gave an IC50 (EGFR) of 0.85 µM and a melting point of 112 to 113 °C.
For `CCOc1ccc(NC(=O)/C=C/c2ccc3c(c2)OCCCCO3)cc1` [Compound D9, (E)-N-(4-ethoxyphenyl)-3-(2,3,4,5-tetrahydrobenzo[b][1,4]dioxocin-8-yl)acrylamide], the IC50 (Hela) was 6.75 µM, the IC50 (HepG2) was 0.79 µM and the “effect on HepG2 cell survival ratios (CCK8 assay)” value (HepG2; concentrations lower than 0.1 μM) was “no effect”. For the same molecule, the IC50 (A431) was 7.03 µM, the IC50 (EGFR) was 0.36 µM and the “percentage of cell apoptosis” value (HepG2 cell; HepG2, 4 μM) was 17.99%. For the same molecule, the “percentage of cell apoptosis” value (HepG2 cell; HepG2, 6 μM) was 26.83%, the “percentage of cell apoptosis” value (HepG2 cell; HepG2, 8 μM) was 41.1% and the “amount of migrating HepG2 cells vs control” value (HepG2 cell migration) was “less than control group”. The melting point was 137 to 139 °C.
Work on `O=C(/C=C/c1ccc2c(c1)OCCCCO2)Nc1cccc(Cl)c1` [Compound D10, (E)-N-(3-chlorophenyl)-3-(2,3,4,5-tetrahydrobenzo[b][1,4]dioxocin-8-yl)acrylamide] yielded an IC50 (Hela) of 18.5 µM, an IC50 (HepG2) of 6.87 µM and an IC50 (A431) of 20 µM. It also gave an IC50 (EGFR) of 12.4 µM and a melting point of 109 to 110 °C.
`O=C(/C=C/c1ccc2c(c1)OCCCCO2)Nc1ccccc1Cl` [Compound D11, (E)-N-(2-chlorophenyl)-3-(2,3,4,5-tetrahydrobenzo[b][1,4]dioxocin-8-yl)acrylamide] gave an IC50 (Hela) of 16.7 µM, an IC50 (HepG2) of 4.94 µM and an IC50 (A431) of 18.9 µM. It also gave an IC50 (EGFR) of 8.97 µM and a melting point of 127 to 128 °C.
`Cc1cccc(NC(=O)/C=C/c2ccc3c(c2)OCCCCO3)c1` [Compound D12, (E)-3-(2,3,4,5-tetrahydrobenzo[b][1,4]dioxocin-8-yl)-N-m-tolylacrylamide] gave an IC50 (Hela) of 10.8 µM, an IC50 (HepG2) of 6.28 µM and an IC50 (A431) of 14.2 µM. The IC50 (EGFR) was 12 µM and the melting point was 112 to 113 °C.
With `Cc1ccc(Cl)cc1NC(=O)/C=C/c1ccc2c(c1)OCCCCO2` [Compound D13, (E)-N-(5-chloro-2-methylphenyl)-3-(2,3,4,5-tetrahydrobenzo[b][1,4]dioxocin-8-yl)acrylamide] the IC50 (Hela) was 24.3 µM, the IC50 (HepG2) was 15.2 µM and the IC50 (A431) was 14.1 µM. The melting point was 107 to 108 °C.
For `O=C(/C=C/c1ccc2c(c1)OCCCCO2)Nc1ccc(Br)cc1F` [Compound D14, (E)-N-(4-bromo-2-fluorophenyl)-3-(2,3,4,5-tetrahydrobenzo[b][1,4]dioxocin-8-yl)acrylamide], the IC50 (Hela) was 30.8 µM, the IC50 (HepG2) was 9.03 µM and the IC50 (A431) was 22.6 µM. The melting point was 110 to 111 °C.
`O=C(/C=C/c1ccc2c(c1)OCCCCO2)NCc1ccccc1F` [Compound D15, (E)-N-(2-fluorobenzyl)-3-(2,3,4,5-tetrahydrobenzo[b][1,4]dioxocin-8-yl)acrylamide] showed an IC50 (Hela) of 5.15 µM, an IC50 (HepG2) of 1.48 µM and an IC50 (A431) of 17.8 µM. It also gave an IC50 (EGFR) of 2.18 µM and a melting point of 86 to 87 °C.
Work on `O=C(/C=C/c1ccc2c(c1)OCCCCO2)Nc1ccc(Br)cc1` [Compound D16, (E)-N-(4-bromophenyl)-3-(2,3,4,5-tetrahydrobenzo[b][1,4]dioxocin-8-yl)acrylamide] yielded an IC50 (Hela) of 9.04 µM, an IC50 (HepG2) of 2.38 µM and an IC50 (A431) of 7.96 µM. The IC50 (EGFR) was 3.52 µM and the melting point was 107 to 108 °C.
With `O=C(/C=C/c1ccc2c(c1)OCCCCO2)Nc1cccc(F)c1` [Compound D17, (E)-N-(3-fluorophenyl)-3-(2,3,4,5-tetrahydrobenzo[b][1,4]dioxocin-8-yl)acrylamide] the IC50 (Hela) was 19.5 µM, the IC50 (HepG2) was 7.9 µM and the IC50 (A431) was 21.6 µM. For the same molecule, the melting point was 116 to 117 °C.
Work on `C#Cc1cccc(Nc2ncnc3cc(OCCOC)c(OCCOC)cc23)c1` [Erlotinib, reference compound] yielded an IC50 (HepG2) of 0.08 µM and an IC50 (A431) of 0.04 µM.
